From patent US20140274688A1, “MOLECULES HAVING CERTAIN PESTICIDAL UTILITIES, AND INTERMEDIATES, COMPOSITIONS, AND PROCESSES RELATED THERETO” (DOW AGROSCIENCES LLC, priority 2013, published 2014)

Experiments:
[1] = tested on: Cabbage Looper (Trichoplusia ni) ("CL"); assay: Bioassay on Cabbage Looper (CL), 128-well diet tray assay, percent mortality; assay type: in vivo; conditions: for CL rating (percent mortality class): Cabbage Looper, 128-well diet tray assay; for pest or weed control at 50 µg/cm2: Trichoplusia ni, read-out: CL
From the text: (§1) Bioassays on Beet Armyworm (Spodoptera exigua) (“BAW”) and Cabbage Looper (Trichoplusia ni) (“CL”)
(§2) BAW has few effective parasites, diseases, or predators to lower its population. BAW infests many weeds, trees, grasses, legumes, and field crops. In various places, it is of economic concern upon asparagus, cotton, corn, soybeans, tobacco, alfalfa, sugar beets, peppers, tomatoes, potatoes, onions, peas, sunflowers, and citrus, among other plants. The Cabbage Looper is a member of the moth family Noctuidae. It is found throughout the world. It is attacks cabbage, cauliflower, broccoli, Brussel sprouts, tomatoes, cucumbers, potatoes, kale, turnips, mustard, peppers, eggplant, watermelons, melons, squash, cantaloupe, peas, beans, collards, lettuce, spinach, celery, parsley, beets, peas, alfalfa, soybeans, and cotton. This species is very destructive to plants due to its voracious consumption of leaves. In the case of cabbage, however, they feed not only on the wrapper leaves, but also may bore into the developing head. The larvae consume three times their weight in plant material daily. The feeding sites are marked by large accumulations of sticky, wet fecal material.
(§3) Consequently, because of the above factors control of these pests is important.
(§4) Certain molecules disclosed in this document were tested against BAW and CEW using procedures described in the following examples. In the reporting of the results, the “BAW & CL Rating Table” was used (See Table Section).
Bioassays on Cabbage Looper in CL
(§5) Trays were covered with a clear self-adhesive cover and held at 25° C., 14:10 light-dark for five to seven days. Percent mortality was recorded for the larvae in each well; activity in the eight wells was then averaged. The results are indicated in the table entitled “Table ABC: Biological Results” (See Table Section).

[2] = tested on: Beet Armyworm (Spodoptera exigua) ("BAW"); assay: Bioassay on Beet Armyworm (BAW), 128-well diet tray assay, percent mortality; assay type: in vivo; conditions: for BAW rating (percent mortality class): Beet Armyworm, 128-well diet tray assay
From the text: as §1, §2, §3, §4, §5

| SMILES | CL rating (percent mortality class) [1] | BAW rating (percent mortality class) [2] | pest or weed control at 50 µg/cm2 [1] [%] | pest or weed control at 50 µg/cm2 ([2]; Spodoptera exigua, read-out: BAW) [%] |
| --- | --- | --- | --- | --- |
| CC(C)c1ccccc1N1C(=O)CS/C1=N\C(=O)NCCc1ccc(-c2ncn(-c3ccc(OC(F)(F)F)cc3)n2)cc1 [F1, (Z)-1-(3-(2-isopropylphenyl)-4-oxothiazolidin-2-ylidene)-3-(4-(1-(4-(trifluoromethoxy)phenyl)-1H-1,2,4-triazol-3-yl)phenethyl)urea] | A (50-100) | A (50-100) | – | – |
| CC(Cc1ccc(-c2ncn(-c3ccc(OC(F)(F)F)cc3)n2)cc1)NC(=O)NC(=S)Nc1ccccc1C(C)C (stereo not shown) [F4, N-[2-(propan-2-yl)phenyl]-N′-[1-(4-{1-[4-(trifluoromethoxy)phenyl]-1H-1,2,4-triazol-3-yl}phenyl)propan-2-yl]dicarbonimidothioic diamide] | A (50-100) | A (50-100) | – | – |
| Cc1ccc(C(C)C)c(N2C(=O)CS/C2=N\C(=O)NC(C)Cc2ccc(-c3ncn(-c4ccc(OC(F)(F)F)cc4)n3)cc2)c1 (stereo not shown) [F8, (Z)-1-(3-(2-isopropyl-5-methylphenyl)-4-oxothiazolidin-2-ylidene)-3-(1-(4-(1-(4-(trifluoromethoxy)phenyl)-1H-1,2,4-triazol-3-yl)phenyl)propan-2-yl)urea] | A (50-100) | A (50-100) | – | – |
| CC(C)c1ccccc1NC(=S)NC(=O)N/C=C/c1ccc(-c2ncn(-c3ccc(OC(F)(F)F)cc3)n2)cc1 [F11, N-[2-(propan-2-yl)phenyl]-N′-[(E)-2-(4-{1-[4-(trifluoromethoxy)phenyl]-1H-1,2,4-triazol-3-yl}phenyl)ethenyl]dicarbonimidothioic diamide] | A (50-100) | A (50-100) | – | – |
| CC(C)c1ccccc1N1C(=O)CS/C1=N\C(=O)N/C=C/c1ccc(-c2ncn(-c3ccc(OC(F)(F)F)cc3)n2)cc1 [F12] | A (50-100) | A (50-100) | – | – |
| C/C(=C\NC(=O)/N=C1\SCC(=O)N1c1ccccc1C(C)C)c1ccc(-c2ncn(-c3ccc(OC(F)(F)F)cc3)n2)cc1 [F13] | A (50-100) | A (50-100) | – | – |
| CC(C)c1ccccc1NC(=S)NC(=O)NCc1ccc(-c2ncn(-c3ccc(OC(F)(F)C(F)(F)F)cc3)n2)cc1 [F15, N-(4-{1-[4-(pentafluoroethoxy)phenyl]-1H-1,2,4-triazol-3-yl}benzyl)-N′-[2-(propan-2-yl)phenyl]dicarbonimidothioic diamide] | A (50-100) | A (50-100) | – | – |
| Cc1ccc(C(C)C)c(NC(=S)NC(=O)NCc2ccc(-c3ncn(-c4ccc(OC(F)(F)C(F)(F)F)cc4)n3)cc2)c1 [F16, N-[5-methyl-2-(propan-2-yl)phenyl]-N′-(4-{1-[4-(pentafluoroethoxy)phenyl]-1H-1,2,4-triazol-3-yl}benzyl)dicarbonimidothioic diamide] | A (50-100) | A (50-100) | – | – |
| CC(C)c1ccccc1N1C(=O)CS/C1=N\C(=O)NCc1ccc(-c2ncn(-c3ccc(OC(F)(F)F)cc3)n2)cc1 [F17, (Z)-1-(3-(2-isopropylphenyl)-4-oxothiazolidin-2-ylidene)-3-(4-(1-(4-(trifluoromethoxy)phenyl)-1H-1,2,4-triazol-3-yl)benzyl)urea] | A (50-100) | A (50-100) | – | – |
| CC(C)c1ccccc1N1C(=O)CS/C1=N\C(=O)NCc1ccc(-c2ncn(-c3ccc(OC(F)(F)C(F)(F)F)cc3)n2)cc1 [F18, (Z)-1-(3-(2-isopropylphenyl)-4-oxothiazolidin-2-ylidene)-3-(4-(1-(4-(perfluoroethoxy)phenyl)-1H-1,2,4-triazol-3-yl)benzyl)urea] | A (50-100) | A (50-100) | – | – |
| Cc1ccc(C(C)C)c(N2C(=O)CS/C2=N\C(=O)NCc2ccc(-c3ncn(-c4ccc(OC(F)(F)C(F)(F)F)cc4)n3)cc2)c1 [F19, (Z)-1-(3-(2-isopropyl-5-methylphenyl)-4-oxothiazolidin-2-ylidene)-3-(4-(1-(4-(perfluoroethoxy)phenyl)-1H-1,2,4-triazol-3-yl)benzyl)urea] | A (50-100) | A (50-100) | – | – |
| CC(C)c1ccccc1NC(=S)NC(=O)NC1CC1c1ccc(-c2ncn(-c3ccc(OC(F)(F)F)cc3)n2)cc1 (stereo not shown) [F22, N-[2-(propan-2-yl)phenyl]-N′-[2-(4-{1-[4-(trifluoromethoxy)phenyl]-1H-1,2,4-triazol-3-yl}phenyl)cyclopropyl]dicarbonimidothioic diamide] | A (50-100) | A (50-100) | – | – |
| CCCc1ccccc1NC(=S)NC(=O)NC1CC1c1ccc(-c2ncn(-c3ccc(OC(F)(F)F)cc3)n2)cc1 (stereo not shown) [F23] | A (50-100) | A (50-100) | – | – |
| CCc1cccc(C)c1NC(=S)NC(=O)NC1CC1c1ccc(-c2ncn(-c3ccc(OC(F)(F)F)cc3)n2)cc1 (stereo not shown) [F24, N-(2-ethyl-6-methylphenyl)-N′-[2-(4-{1-[4-(trifluoromethoxy)phenyl]-1H-1,2,4-triazol-3-yl}phenyl)cyclopropyl]dicarbonimidothioic diamide] | A (50-100) | A (50-100) | – | – |
| Cc1cccc(C)c1NC(=S)NC(=O)NC1CC1c1ccc(-c2ncn(-c3ccc(OC(F)(F)F)cc3)n2)cc1 (stereo not shown) [F25] | A (50-100) | A (50-100) | – | – |
| COc1ccc(NC(=S)NC(=O)NC2CC2c2ccc(-c3ncn(-c4ccc(OC(F)(F)F)cc4)n3)cc2)c(C)c1 (stereo not shown) [F26] | A (50-100) | A (50-100) | – | – |
| Cc1ccc(C(C)C)c(NC(=S)NC(=O)NCc2ccc(-c3ncn(-c4ccc(OC(F)(F)F)cc4)n3)cc2)c1 [F35, N-[5-methyl-2-(propan-2-yl)phenyl]-N′-(4-{1-[4-(trifluoromethoxy)phenyl]-1H-1,2,4-triazol-3-yl}benzyl)dicarbonimidothioic diamide] | – | A (50-100) | – | – |
| Cc1ccc(-n2c(C)cs/c2=N\C(=O)NCc2ccc(-c3ncn(-c4ccc(OC(F)(F)F)cc4)n3)cc2)c(C(C)C)c1 [P20, (Z)-1-(3-(2-isopropyl-4-methylphenyl)-4-methylthiazol-2(3H)-ylidene)-3-(4-(1-(4-(trifluoromethoxy)phenyl)-1H-1,2,4-triazol-3-yl)benzyl)urea] | – | – | 50 to 100 | – |
| Cc1ccc(C(C)C)c(N2C(=O)CS/C2=N\C(=O)NCCc2cccc(-c3ncn(-c4ccc(OC(F)(F)F)cc4)n3)c2)c1 [P81, (Z)-1-(3-(2-isopropyl-5-methylphenyl)-4-oxothiazolidin-2-ylidene)-3-(3-(1-(4-(trifluoromethoxy)phenyl)-1H-1,2,4-triazol-3-yl)phenethyl)urea] | – | – | 50 to 100 | – |
| Cc1cccc(C)c1N1C(=O)CS/C1=N\C(=O)NCCCCc1ccc(-c2ncn(-c3ccc(OC(F)(F)F)cc3)n2)cc1 [P152, (Z)-1-(3-(2,6-dimethylphenyl)-4-oxothiazolidin-2-ylidene)-3-(4-(4-(1-(4-(trifluoromethoxy)phenyl)-1H-1,2,4-triazol-3-yl)phenyl)butyl)urea] | – | – | 50 to 100 | – |
| CCc1cccc(C)c1N1C(=O)CS/C1=N\C(=O)NCCCCc1ccc(-c2ncn(-c3ccc(OC(F)(F)F)cc3)n2)cc1 [P153, (Z)-1-(3-(2-ethyl-6-methylphenyl)-4-oxothiazolidin-2-ylidene)-3-(4-(4-(1-(4-(trifluoromethoxy)phenyl)-1H-1,2,4-triazol-3-yl)phenyl)butyl)urea] | – | – | 50 to 100 | – |
| Cc1ccccc1N1C(=O)CS/C1=N\C(=O)NCCCCc1cccc(-c2ncn(-c3ccc(OC(F)(F)F)cc3)n2)c1 [P170, (Z)-1-(4-oxo-3-(o-tolyl)thiazolidin-2-ylidene)-3-(4-(3-(1-(4-(trifluoromethoxy)phenyl)-1H-1,2,4-triazol-3-yl)phenyl)butyl)urea] | – | – | 50 to 100 | – |
| Cc1ccc(N2C(=O)CS/C2=N\C(=O)NCCCCc2cccc(-c3ncn(-c4ccc(OC(F)(F)F)cc4)n3)c2)c(C(C)C)c1 [P180, (Z)-1-(3-(2-isopropyl-4-methylphenyl)-4-oxothiazolidin-2-ylidene)-3-(4-(3-(1-(4-(trifluoromethoxy)phenyl)-1H-1,2,4-triazol-3-yl)phenyl)butyl)urea] | – | – | 50 to 100 | – |
| CCC(CNC(=O)/N=C1\SCC(=O)N1c1ccc(F)cc1C(C)C)c1ccc(-c2ncn(-c3ccc(OC(F)(F)F)cc3)n2)cc1 (stereo not shown) [P1163, (Z)-1-(3-(4-fluoro-2-isopropylphenyl)-4-oxothiazolidin-2-ylidene)-3-(2-(4-(1-(4-(trifluoromethoxy)phenyl)-1H-1,2,4-triazol-3-yl)phenyl)butyl)urea] | – | – | – | 50 to 100 |
